Laboratory results from patent publication US10253000B2, “Pyridazin-3(2H)-one derivatives as monoamine oxidase selective isoform B inhibitors” (UNIVERSIDADE DE VIGO, priority 2014, dated 2019).
Read-outs that look alike come from different tables or passages of the source. Marks after values point to notes of the source that are not given here.

Experiments:
human recombinant MAO-A = target: T1, human recombinant MAO-A (Homo sapiens, UniProt P21397); experiment: Determination of MAO isoforms activity (Amplex Red, p-tyramine), MAO-A; format: biochemical; conditions: read-out: IC50 hMAO-A
T1 construct: purchased Sigma-Aldrich Química S.A., Alcobendas, Spain; host or cells: insect cells (BTI-TN-5B1-4) infected with recombinant baculovirus
T1 sequence (P21397 1-527): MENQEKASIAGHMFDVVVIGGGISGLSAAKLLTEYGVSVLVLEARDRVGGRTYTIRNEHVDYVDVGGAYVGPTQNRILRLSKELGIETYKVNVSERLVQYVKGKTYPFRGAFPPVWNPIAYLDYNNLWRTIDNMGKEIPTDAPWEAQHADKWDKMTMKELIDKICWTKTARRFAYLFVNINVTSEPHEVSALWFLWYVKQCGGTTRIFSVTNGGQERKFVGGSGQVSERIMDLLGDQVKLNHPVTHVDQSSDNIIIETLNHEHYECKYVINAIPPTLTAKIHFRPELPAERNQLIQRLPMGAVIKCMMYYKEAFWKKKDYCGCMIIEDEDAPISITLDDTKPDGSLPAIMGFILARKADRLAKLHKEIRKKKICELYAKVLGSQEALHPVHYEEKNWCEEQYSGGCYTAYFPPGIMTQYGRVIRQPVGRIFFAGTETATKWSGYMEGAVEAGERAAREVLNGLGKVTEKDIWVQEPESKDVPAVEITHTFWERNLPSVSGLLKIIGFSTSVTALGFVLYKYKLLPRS

human recombinant MAO-B = target: T2, human recombinant MAO-B (Homo sapiens, UniProt P27338); experiment: Determination of MAO isoforms activity (Amplex Red, p-tyramine), MAO-B; format: biochemical; conditions: for S.I. Selectivity index hMAO-B = IC50 (hMAO-A)/IC50 (hMAO-B): bounds calculated taking the highest concentration studied (100 μM or 1 mM) as IC50; for IC50: read-out: IC50 hMAO-B
T2 construct: purchased Sigma-Aldrich Química S.A., Alcobendas, Spain; host or cells: insect cells (BTI-TN-5B1-4) infected with recombinant baculovirus
T2 sequence (P27338 1-520): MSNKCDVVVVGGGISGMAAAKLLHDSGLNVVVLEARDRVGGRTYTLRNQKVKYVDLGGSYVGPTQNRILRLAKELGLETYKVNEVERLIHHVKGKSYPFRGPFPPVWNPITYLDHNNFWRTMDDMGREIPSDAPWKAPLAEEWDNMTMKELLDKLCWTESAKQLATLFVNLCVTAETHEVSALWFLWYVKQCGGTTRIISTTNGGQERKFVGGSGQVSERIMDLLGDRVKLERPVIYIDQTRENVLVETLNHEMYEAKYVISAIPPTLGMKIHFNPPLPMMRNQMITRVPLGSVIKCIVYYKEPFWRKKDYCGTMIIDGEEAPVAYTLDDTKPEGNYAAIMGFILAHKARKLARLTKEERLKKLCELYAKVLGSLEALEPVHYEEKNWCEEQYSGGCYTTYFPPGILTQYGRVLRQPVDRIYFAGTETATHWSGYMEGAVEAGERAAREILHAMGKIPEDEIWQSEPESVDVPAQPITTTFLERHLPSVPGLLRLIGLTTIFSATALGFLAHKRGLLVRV

[1] = human recombinant MAO-B, p-tyramine 1 mM, mean ± spread of 5 experiments

| IC50 (human recombinant MAO-A) [µM] | S.I. Selectivity index hMAO-B = IC50 (hMAO-A)/IC50 (hMAO-B) (human recombinant MAO-B) | IC50 (human recombinant MAO-B; [1]) [µM] | IC50 (human recombinant MAO-B) [µM] | SMILES |
| --- | --- | --- | --- | --- |
| > 100 | >15^b | 6.71 ± 0.45 |  | O=c1cc(CSC(=S)N2CCCCC2)cnn1Cc1ccccc1 [IIc4, 1-benzyl-6-oxo-1,6-dihydropyridazin-4-ylmethyl Piperidin-1-ylcarbodithioate] |
| > 100 | >8.4^b | 11.9 ± 0.53 |  | Cn1nc(CCSC(=S)N2CCCCC2)ccc1=O [Ia15, 2-(1-methyl-6-oxo-1,6-dihydropyridazin-3-yl)ethyl Piperidin-1-ylcarbodithioate] |
| > 100 | >1.5^b | 66.5 ± 4.43 |  | Cn1nc(CCCSC(=S)N2CCCC2)ccc1=O [Ia25, 3-(1-methyl-6-oxo-1,6-dihydropyridazin-3-yl)propyl Pyrrolidin-1-ylcarbodithioate] |
|  | 2.6 | 38.6 ± 1.74 |  | Cc1cc(=O)n(C)nc1CSC(=S)N1CCOCC1 [Id5, 1,4-dimethyl-6-oxo-1,6-dihydropyridazin-3-ylmethyl morpholin-4-ylcarbodithioate] |
|  | 2.2 | 44.5 ± 2 |  | Cc1cc(=O)n(C)nc1CSC(=S)N1CCN(C(=O)c2ccccc2)CC1 [Id11, 1,4-dimethyl-6-oxo-1,6-dihydropyridazin-3-ylmethyl 4-benzoylpiperazin-1-ylcarbodithioate] |
| > 100 |  |  | > 100 | O=C(c1ccccc1)N1CCN(C(=S)SCc2ccnn(Cc3ccccc3)c2=O)CC1 [IIIc11, 1-benzyl-6-oxo-1,6-dihydropyridazin-5-ylmethyl 4-benzoylpiperazin-1-ylcarbodithioate] |
| > 100 |  |  | > 1000 | Cc1cc(=O)n(C)nc1CSC(=S)N1CCCC1 [Id3, 1,4-dimethyl-6-oxo-1,6-dihydropyridazin-3-ylmethyl Pyrrolidin-1-ylcarbodithioate] |
| > 100 |  |  |  | O=c1cc(CSC(=S)N2CCOCC2)cnn1Cc1ccccc1 [IIc5, 1-benzyl-6-oxo-1,6-dihydropyridazin-4-ylmethyl Morpholin-4-ylcarbodithioate] |
| > 100 | >2.9^b | 34 ± 2.26 |  | O=c1c(CSC(=S)N2CCCC2)ccnn1Cc1ccccc1 [IIIc3, 1-benzyl-6-oxo-1,6-dihydropyridazin-5-ylmethyl Pyrrolidin-1-ylcarbodithioate] |
| > 100 | >2.3^b | 44.2 ± 2.95 |  | CCN(CC)C(=S)SCc1cnn(Cc2ccccc2)c(=O)c1 [IIc2, 1-benzyl-6-oxo-1,6-dihydropyridazin-4-ylmethyl N,N-diethyldithiocarbamate] |
|  | 10.3 | 9.68 ± 0.65 |  | O=c1cc(CSC(=S)N2CCCC2)cnn1Cc1ccccc1 [IIc3, 1-benzyl-6-oxo-1,6-dihydropyridazin-4-ylmethyl Pyrrolidin-1-ylcarbodithioate] |
| > 100 | >4.2^b | 24.1 ± 1.6 |  | O=c1c(CSC(=S)N2CCOCC2)ccnn1Cc1ccccc1 [IIIc5, 1-benzyl-6-oxo-1,6-dihydropyridazin-5-ylmethyl Morpholin-4-ylcarbodithioate] |
|  | 13.4 | 7.48 ± 0.34 |  | Cc1cc(=O)n(C)nc1CSC(=S)N1CCCCC1 [Id4, 1,4-dimethyl-6-oxo-1,6-dihydropyridazin-3-ylmethyl Piperidin-1-ylcarbodithioate] |
| > 100 |  |  | > 100 | O=C(c1ccccc1)N1CCN(C(=S)SCc2cnn(Cc3ccccc3)c(=O)c2)CC1 [IIc11, 1-benzyl-6-oxo-1,6-dihydropyridazin-4-ylmethyl 4-benzoylpiperazin-1-ylcarbodithioate] |
